Among the data in patent publication US20250026725A1, “HYDRATE CRYSTAL OF 5-CHLORO-4-(3-CHLORO-4- METHYLPHENYL)-1H-IMIDAZOLE-2-CARBONITRILE” (ISHIHARA SANGYO KAISHA, LTD., priority 2021, published 2025) are MFC, Moisture content and Weight change values, retold here.

Series [1] relates to Microsporum canis (IFM63627). The experiment in a line: Antifungal activity test, minimum fungicidal concentration (MFC100) on spores by treatment time. As to conditions: read-out: Minimal fungicidal concentration (MFC100). The class given is cell-based. As to the method: Microsporum canis was cultured on a 1/10 Sabouraud medium at 32° C. for 168 hours to form spores. Then, 10 mL of physiological saline solution (OTSUKA NORMAL SALINE; containing the equivalent of 9 g of sodium chloride in 1000 mL) was directly added over the medium, and the surface was scraped with a disposable loop (Type 1 (1 μL) to collect a spore suspension containing mycelia. The spore suspension containing mycelia was filtered through a cell strainer ((40 μm). Spores were collected from a filtrate by centrifugation (3500 rpm, 5 minutes), and washed twice with physiological saline to prepare a spore suspension (1×10^7 cells/mL). 10 μL of the spore suspension was inoculated into 90 μL of physiological saline solution to which the compound under test dissolved in DMSO was added so as to have a predetermined concentration. Every time a predetermined time lapsed, 10 μL of a test solution containing spores was taken out. Spores were collected from the test solution thus taken out by centrifugation (3500 rpm, 5 minutes), and washed twice with physiological saline to prepare 10 μL of spore suspension. […]
A minimum fungicidal concentration (MFC100) for Microsporum canis (IMF63627) was determined in the same method as in Test Example 8 except that the hydrate crystal (Production Example 2) was used as the compound under test.

A short description of the next series: Moisture absorption test. The class given is physicochemical. As to the method:
An anhydrous crystal sample was placed in a container (glass weighing bottle or paper bag) in such a manner that it was in direct contact with the damp. […] In addition, a sample for the hydrate crystal (Production Example 1) was also preserved at 60° C./80% RH, and the change in moisture content was observed through the change in weight or Karl Fischer moisture measurement.

[2] abbreviates: 40° C./75% RH, weighing bottle, 14 days.
Setting [3] is: 40° C./75% RH, weighing bottle, 28 days.
[4] abbreviates: 40° C./75% RH, weighing bottle, 28 days, listed as Anhydrate crystal.

Each structure is given as a SMILES string. In brackets after ≈: the same amount, converted by molar mass. Where two headings read alike, the source gives them in different places.

As to `Cc1ccc(-c2nc(C#N)[nH]c2Cl)cc1Cl` [Anhydrous crystal, 5-chloro-4-(3-chloro-4-methylphenyl)-1H-imidazole-2-carbonitrile], the MFC in series [1] (treatment time 24 hours) worked out at 50 µg/mL (≈ 198 µM); in series [1] (treatment time 96 hours) it was 10 µg/mL (≈ 39.7 µM). Further, the Moisture content amounted to 0.1% in “Moisture absorption test” (25° C./80% RH, paper bag, 0 days); 0.1% in the series “Moisture absorption test” (40° C./75% RH, weighing bottle, 0 days); 5.7% in “Moisture absorption test” (setting [2]); 6.1% in the series “Moisture absorption test” (setting [3]); 6.1% in the series “Moisture absorption test” (setting [4]). The Weight change in the series “Moisture absorption test” (25° C./80% RH, paper bag, 14 days) was determined as 0.6%; in “Moisture absorption test” (25° C./80% RH, paper bag, 28 days) it was 2.2%; in the series “Moisture absorption test” (25° C./80% RH, paper bag, 35 days), 3.3%; in the series “Moisture absorption test” (25° C./80% RH, paper bag, 43 days) it was 4.2%; in “Moisture absorption test” (25° C./80% RH, paper bag, 49 days) it was 4.7%; in “Moisture absorption test” (25° C./80% RH, paper bag, 49 days, listed as Anhydrate crystal), 4.7%. The Weight change was 3.5% in the series “Moisture absorption test” (40° C./75% RH, weighing bottle, 7 days); 5.0% in “Moisture absorption test” (setting [2]); 6.4% in the series “Moisture absorption test” (40° C./75% RH, weighing bottle, 21 days); 6.7% in “Moisture absorption test” (setting [3]); 6.7% in the series “Moisture absorption test” (setting [4]).
